This is an account of results in ChEMBL document CHEMBL5247667, “Design, synthesis and characterizations of prodrugs of brexanolone” (Bioorg Med Chem Lett, 2023).

Bounds are passed on as bounds.

The nature of the first data set: Metabolic stability in human plasma assessed as half life at 1 uM incubated for 60 min by LC-MS/MS method.
Conditions: not given
The format is ADME, cell-free.
For `CC(=O)[C@H]1CC[C@H]2[C@@H]3CC[C@H]4C[C@H](OC(=O)N(C)CCOC(=O)C(C)C)CC[C@]4(C)[C@H]3CC[C@]12C`, the half-life at 1 µM was found to be 176 min.
As to `CC(=O)[C@H]1CC[C@H]2[C@@H]3CC[C@H]4C[C@H](OC(=O)CCCOC(=O)C(C)C)CC[C@]4(C)[C@H]3CC[C@]12C`, the half-life at 1 µM was determined as 140 min.
Consider `CC(=O)[C@H]1CC[C@H]2[C@@H]3CC[C@H]4C[C@H](OC(=O)CC5CCCC5)CC[C@]4(C)[C@H]3CC[C@]12C`, for which the half-life at 1 µM was determined as 300 min.
Take `CC(=O)[C@H]1CC[C@H]2[C@@H]3CC[C@H]4C[C@H](OC(=O)NCCOC(=O)C(C)C)CC[C@]4(C)[C@H]3CC[C@]12C`: the half-life at 1 µM turned out to be 289 min.
Consider `CCCCOC(=O)O[C@@H]1CC[C@@]2(C)[C@@H](CC[C@@H]3[C@@H]2CC[C@]2(C)[C@@H](C(C)=O)CC[C@@H]32)C1`, for which the half-life at 1 µM was > 233 min.
Still for that read-out and setting: next, `CC(=O)[C@H]1CC[C@H]2[C@@H]3CC[C@H]4C[C@H](OC(=O)OCCN(C)C(=O)C(C)C)CC[C@]4(C)[C@H]3CC[C@]12C`: 289 min; `CCCCCC(=O)O[C@@H]1CC[C@@]2(C)[C@@H](CC[C@@H]3[C@@H]2CC[C@]2(C)[C@@H](C(C)=O)CC[C@@H]32)C1`: > 300 min.

Another data set can be described thus: Half life in Sprague-Dawley rat at 5 mg/kg, IM administered for 30 mins measured after 24 hrs post dose by LC-MS/MS analysis. The format is ADME, organism-based. Particulars: in vivo, time 24.5 hrs.
Consider `CCCCCC(=O)O[C@@H]1CC[C@@]2(C)[C@@H](CC[C@@H]3[C@@H]2CC[C@]2(C)[C@@H](C(C)=O)CC[C@@H]32)C1`, for which the half-life was 476 min.

The next data set can be described thus: Metabolic stability in Sprague-Dawley rat plasma assessed as half life at 1 uM incubated for 60 min by LC-MS/MS method. The format is ADME, cell-free.
Conditions: not given
With `CC(=O)[C@H]1CC[C@H]2[C@@H]3CC[C@H]4C[C@H](OC(=O)N(C)CCOC(=O)C(C)C)CC[C@]4(C)[C@H]3CC[C@]12C`, the half-life at 1 µM is 1.6 min.
On the same count and under the same terms, next, `CC(=O)[C@H]1CC[C@H]2[C@@H]3CC[C@H]4C[C@H](OC(=O)CCCOC(=O)C(C)C)CC[C@]4(C)[C@H]3CC[C@]12C`: 1.2 min; `CCCCOC(=O)O[C@@H]1CC[C@@]2(C)[C@@H](CC[C@@H]3[C@@H]2CC[C@]2(C)[C@@H](C(C)=O)CC[C@@H]32)C1`: 6.3 min; `CCCCCC(=O)O[C@@H]1CC[C@@]2(C)[C@@H](CC[C@@H]3[C@@H]2CC[C@]2(C)[C@@H](C(C)=O)CC[C@@H]32)C1`: > 289 min.

A short description of the next data set: AUClast in Sprague-Dawley rat assessed as BXN at 5 mg/kg, IM administered for 30 mins measured after 24 hrs post dose by LC-MS/MS analysis. The data set is classed as ADME, organism-based. On the set-up: time 24.5 hrs, dose 5 mg/kg, route im. Particulars: in vivo, 24.5 h.
Take `CCCCCC(=O)O[C@@H]1CC[C@@]2(C)[C@@H](CC[C@@H]3[C@@H]2CC[C@]2(C)[C@@H](C(C)=O)CC[C@@H]32)C1`: the AUClast stood at 67.9 ng·h/mL.

Another data set is described as follows: Metabolic stability in beagle dog plasma assessed as half life at 1 uM incubated for 60 min by LC-MS/MS method.
Conditions: not given
The data set is classed as ADME, cell-free, Canis lupus familiaris.
With `CC(=O)[C@H]1CC[C@H]2[C@@H]3CC[C@H]4C[C@H](OC(=O)N(C)CCOC(=O)C(C)C)CC[C@]4(C)[C@H]3CC[C@]12C`, the half-life at 1 µM amounted to 138 min.
With `CC(=O)[C@H]1CC[C@H]2[C@@H]3CC[C@H]4C[C@H](OC(=O)CCCOC(=O)C(C)C)CC[C@]4(C)[C@H]3CC[C@]12C`, the half-life at 1 µM stood at 233 min.
Still for that read-out and setting: the same measure for `CCCCOC(=O)O[C@@H]1CC[C@@]2(C)[C@@H](CC[C@@H]3[C@@H]2CC[C@]2(C)[C@@H](C(C)=O)CC[C@@H]32)C1`: 132 min.

A further data set is described as follows: Metabolic stability in beagle dog liver S9 fraction assessed as half life at 1 uM incubated for 60 min by LC-MS/MS method. The data set is classed as ADME, subcellular, Canis lupus familiaris.
Conditions: not given
For the molecule `CC(=O)[C@H]1CC[C@H]2[C@@H]3CC[C@H]4C[C@H](OC(=O)N(C)CCOC(=O)C(C)C)CC[C@]4(C)[C@H]3CC[C@]12C`, the half-life at 1 µM worked out at 1.8 min.
On to `CC(=O)[C@H]1CC[C@H]2[C@@H]3CC[C@H]4C[C@H](OC(=O)CCCOC(=O)C(C)C)CC[C@]4(C)[C@H]3CC[C@]12C`, for which the half-life at 1 µM was 1.9 min.
As to `CCCCOC(=O)O[C@@H]1CC[C@@]2(C)[C@@H](CC[C@@H]3[C@@H]2CC[C@]2(C)[C@@H](C(C)=O)CC[C@@H]32)C1`, the half-life at 1 µM is 1.5 min.

A further data set can be described thus: AUClast in Sprague-Dawley rat at 5 mg/kg, IM administered for 30 mins measured after 24 hrs post dose by LC-MS/MS analysis. The data set is classed as ADME, organism-based. On the set-up: time 24.5 hrs, dose 5 mg/kg, route im. Particulars: in vivo.
`CCCCCC(=O)O[C@@H]1CC[C@@]2(C)[C@@H](CC[C@@H]3[C@@H]2CC[C@]2(C)[C@@H](C(C)=O)CC[C@@H]32)C1` showed an area under the curve AUC(0-t) at 24.5 h of 716 ng·h/mL.

A further data set can be described thus: Metabolic stability in Sprague-Dawley rat liver S9 fraction assessed as half life at 1 uM incubated for 60 min by LC-MS/MS method. The format is ADME, subcellular.
Conditions: not given
Regarding `CC(=O)[C@H]1CC[C@H]2[C@@H]3CC[C@H]4C[C@H](OC(=O)CCCOC(=O)C(C)C)CC[C@]4(C)[C@H]3CC[C@]12C`, the half-life at 1 µM turned out to be 1.1 min.
Same read-out and setting: the same measure for `CCCCOC(=O)O[C@@H]1CC[C@@]2(C)[C@@H](CC[C@@H]3[C@@H]2CC[C@]2(C)[C@@H](C(C)=O)CC[C@@H]32)C1`: 16 min; for `CCCCCC(=O)O[C@@H]1CC[C@@]2(C)[C@@H](CC[C@@H]3[C@@H]2CC[C@]2(C)[C@@H](C(C)=O)CC[C@@H]32)C1`: 4.7 min.

Another data set can be described thus: Prodrug conversion in beagle dog assessed as ratio of AUC for compound to BXN at 5 mg/kg,IM and measured after 60 mins by LC-MS/MS analysis. The data set is classed as ADME, organism-based, Canis lupus familiaris. Particulars: in vivo, 1 h.
In the case of `CCCCCC(=O)O[C@@H]1CC[C@@]2(C)[C@@H](CC[C@@H]3[C@@H]2CC[C@]2(C)[C@@H](C(C)=O)CC[C@@H]32)C1`, the “Ratio AUC” value turned out to be 0.09.

The next data set can be described thus: Cmax in Sprague-Dawley rat assessed as BXN at 5 mg/kg, IM administered for 30 mins measured after 24 hrs post dose by LC-MS/MS analysis. Particulars: in vivo, 24.5 h. The format is ADME, organism-based. On the set-up: time 24.5 hrs, dose 5 mg/kg, route im.
As to `CCCCCC(=O)O[C@@H]1CC[C@@]2(C)[C@@H](CC[C@@H]3[C@@H]2CC[C@]2(C)[C@@H](C(C)=O)CC[C@@H]32)C1`, the Cmax is 12.9 ng/mL.

A further data set is described as follows: Metabolic stability in human liver S9 fraction assessed as half life at 1 uM incubated for 60 min by LC-MS/MS method. The format is ADME, subcellular.
Conditions: not given
As for `CC(=O)[C@H]1CC[C@H]2[C@@H]3CC[C@H]4C[C@H](OC(=O)N(C)CCOC(=O)C(C)C)CC[C@]4(C)[C@H]3CC[C@]12C`, the half-life at 1 µM worked out at 0.9 min.
On the same count and under the same terms, the same measure for `CC(=O)[C@H]1CC[C@H]2[C@@H]3CC[C@H]4C[C@H](OC(=O)CCCOC(=O)C(C)C)CC[C@]4(C)[C@H]3CC[C@]12C`: 1.2 min; for `CC(=O)[C@H]1CC[C@H]2[C@@H]3CC[C@H]4C[C@H](OC(=O)CC5CCCC5)CC[C@]4(C)[C@H]3CC[C@]12C`: 25 min.
Still for that read-out and setting: the same measure for `CC(=O)[C@H]1CC[C@H]2[C@@H]3CC[C@H]4C[C@H](OC(=O)NCCOC(=O)C(C)C)CC[C@]4(C)[C@H]3CC[C@]12C`: 0.6 min; for `CCCCOC(=O)O[C@@H]1CC[C@@]2(C)[C@@H](CC[C@@H]3[C@@H]2CC[C@]2(C)[C@@H](C(C)=O)CC[C@@H]32)C1`: 1.6 min.
In the case of `CC(=O)[C@H]1CC[C@H]2[C@@H]3CC[C@H]4C[C@H](OC(=O)OCCN(C)C(=O)C(C)C)CC[C@]4(C)[C@H]3CC[C@]12C`, the half-life at 1 µM stood at 4.3 min.
Take `CCCCCC(=O)O[C@@H]1CC[C@@]2(C)[C@@H](CC[C@@H]3[C@@H]2CC[C@]2(C)[C@@H](C(C)=O)CC[C@@H]32)C1`: the half-life at 1 µM came to 22.9 min.

The nature of the next data set: Cmax in Sprague-Dawley rat at 5 mg/kg, IM administered for 30 mins measured after 24 hrs post dose by LC-MS/MS analysis. On the set-up: time 24.5 hrs, dose 5 mg/kg, route im. Conditions: in vivo. The data set is classed as ADME, organism-based.
The molecule `CCCCCC(=O)O[C@@H]1CC[C@@]2(C)[C@@H](CC[C@@H]3[C@@H]2CC[C@]2(C)[C@@H](C(C)=O)CC[C@@H]32)C1` returned a Cmax of 130 ng/mL.
